Calls of active or inactive are those of the source.
Legend:
[1] = HEK293T cell cytotoxicity, dose response, cytotoxicity control for HIV Vif inhibitor project, cherry-picks (AID 652208); format: functional, cell-based
Cytochrome P450 3A4 = Cytochrome P450 3A4 (Homo sapiens, UniProt P08684);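 further: CYP3A4 tested as one member of a cytochrome P450 panel screen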
Cytochrome P450 2C9 = Cytochrome P450 2C9 (Homo sapiens, UniProt P11712)
[2] = target: Peroxisome proliferator-activated receptor gamma/Nuclear receptor coactivator 1 (Homo sapiens, UniProt P37231); assay: (§1) TR-FRET dose response biochemical High Throughput Screening assay for agonists of the steroid receptor coactivator 1 (SRC-1) recruitment by the peroxisome proliferator-activated receptor gamma (PPAR gamma): non-selective agonists. [Related pubchem assays (depositor defined):AID1300, AID1808, AID504735, AID631]; format: protein assay
[3] = target: Peroxisome proliferator-activated receptor gamma/Nuclear receptor coactivator 3 (Homo sapiens, UniProt P37231); assay: as §1, with “3 (SRC-3)” for “1 (SRC-1)”, “assays: 1301 (Confirmation screen.), 1048 (Primary screen.)]” for “assays (depositor defined):AID1300, AID1808, AID504735, AID631]”; format: functional
[4] = target: Peroxisome proliferator-activated receptor gamma/Nuclear receptor coactivator 2 (Homo sapiens, UniProt P37231); assay: TR-FRET dose response biochemical High Throughput Screening assay for agonists of the steroid receptor coactivator 2 (SRC-2) recruitment by the peroxisome proliferator-activated receptor gamma (PPAR gamma): non-selective agonists. [Related pubchem assays: 1297, 1032 ]; format: functional
Beta-galactosidase = Beta-galactosidase (Escherichia coli, UniProt Q8VNN2); assay: Dose response counterscreen for EBI2 assay utilizing the enzyme, b-galactosidase.; format: functional
Sequence of Beta-galactosidase (Q8VNN2 whole entry): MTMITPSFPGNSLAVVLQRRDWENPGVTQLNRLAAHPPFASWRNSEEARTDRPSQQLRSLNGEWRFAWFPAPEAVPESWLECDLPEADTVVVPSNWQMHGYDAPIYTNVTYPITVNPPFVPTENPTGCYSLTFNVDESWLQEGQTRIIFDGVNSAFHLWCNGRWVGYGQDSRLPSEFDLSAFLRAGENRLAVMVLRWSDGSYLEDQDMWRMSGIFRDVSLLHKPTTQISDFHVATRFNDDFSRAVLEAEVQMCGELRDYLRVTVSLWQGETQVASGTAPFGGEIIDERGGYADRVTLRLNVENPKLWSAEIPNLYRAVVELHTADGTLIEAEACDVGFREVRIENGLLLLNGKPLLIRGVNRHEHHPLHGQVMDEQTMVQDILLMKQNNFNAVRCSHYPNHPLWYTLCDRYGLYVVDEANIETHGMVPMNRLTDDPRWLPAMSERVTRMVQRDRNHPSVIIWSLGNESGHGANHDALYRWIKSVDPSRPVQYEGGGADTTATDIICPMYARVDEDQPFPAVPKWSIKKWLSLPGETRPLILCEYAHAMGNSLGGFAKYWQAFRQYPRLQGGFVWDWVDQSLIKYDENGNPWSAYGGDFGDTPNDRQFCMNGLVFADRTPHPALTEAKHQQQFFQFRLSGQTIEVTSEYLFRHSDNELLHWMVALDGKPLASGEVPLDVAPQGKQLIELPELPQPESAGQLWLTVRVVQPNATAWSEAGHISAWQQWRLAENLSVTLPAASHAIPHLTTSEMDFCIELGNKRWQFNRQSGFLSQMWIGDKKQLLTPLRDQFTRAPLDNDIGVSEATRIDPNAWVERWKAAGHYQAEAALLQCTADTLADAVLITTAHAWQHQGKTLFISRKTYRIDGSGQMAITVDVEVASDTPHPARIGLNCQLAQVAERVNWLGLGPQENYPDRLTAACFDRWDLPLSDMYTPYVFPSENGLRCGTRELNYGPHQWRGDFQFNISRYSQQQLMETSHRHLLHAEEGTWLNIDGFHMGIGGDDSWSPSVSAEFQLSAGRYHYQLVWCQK

Vero = assay: Vero cell toxicity, dose response, cytotoxicity control, plate reader, cherry-pick samples (AID 687020); format: functional, cell-based; conditions: Chlorocebus sabaeus
Beta-lactamase [5] = target: Beta-lactamase (Salmonella choleraesuis (strain SC-B67), UniProt Q5J463); assay: Epi-absorbance-based counterscreen for selective VIM-2 inhibitors: dose response biochemical high throughput screening assay to identify inhibitors of TEM-1 serine-beta-lactamase.
Sequence of Beta-lactamase (Salmonella choleraesuis (strain SC-B67), UniProt Q5J463) (Q5J463 whole entry): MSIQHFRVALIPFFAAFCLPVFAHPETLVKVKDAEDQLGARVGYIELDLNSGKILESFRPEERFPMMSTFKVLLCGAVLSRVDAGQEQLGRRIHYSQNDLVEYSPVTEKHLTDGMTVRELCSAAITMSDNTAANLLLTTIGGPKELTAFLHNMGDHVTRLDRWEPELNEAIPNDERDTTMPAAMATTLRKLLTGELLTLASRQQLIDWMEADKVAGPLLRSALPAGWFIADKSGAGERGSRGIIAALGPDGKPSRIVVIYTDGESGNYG

Aminopeptidase N = target: T1, Aminopeptidase N (Plasmodium falciparum FcB1/Columbia, UniProt O96935); assay: P. falciparum M1AAP inhibitors, biochemical, fluorogenic H-Leu-NHMec substrate, 1536-well (AID 1445); design: species or system Plasmodium falciparum 3D7, 3D7
T1 sequence (O96935 whole entry): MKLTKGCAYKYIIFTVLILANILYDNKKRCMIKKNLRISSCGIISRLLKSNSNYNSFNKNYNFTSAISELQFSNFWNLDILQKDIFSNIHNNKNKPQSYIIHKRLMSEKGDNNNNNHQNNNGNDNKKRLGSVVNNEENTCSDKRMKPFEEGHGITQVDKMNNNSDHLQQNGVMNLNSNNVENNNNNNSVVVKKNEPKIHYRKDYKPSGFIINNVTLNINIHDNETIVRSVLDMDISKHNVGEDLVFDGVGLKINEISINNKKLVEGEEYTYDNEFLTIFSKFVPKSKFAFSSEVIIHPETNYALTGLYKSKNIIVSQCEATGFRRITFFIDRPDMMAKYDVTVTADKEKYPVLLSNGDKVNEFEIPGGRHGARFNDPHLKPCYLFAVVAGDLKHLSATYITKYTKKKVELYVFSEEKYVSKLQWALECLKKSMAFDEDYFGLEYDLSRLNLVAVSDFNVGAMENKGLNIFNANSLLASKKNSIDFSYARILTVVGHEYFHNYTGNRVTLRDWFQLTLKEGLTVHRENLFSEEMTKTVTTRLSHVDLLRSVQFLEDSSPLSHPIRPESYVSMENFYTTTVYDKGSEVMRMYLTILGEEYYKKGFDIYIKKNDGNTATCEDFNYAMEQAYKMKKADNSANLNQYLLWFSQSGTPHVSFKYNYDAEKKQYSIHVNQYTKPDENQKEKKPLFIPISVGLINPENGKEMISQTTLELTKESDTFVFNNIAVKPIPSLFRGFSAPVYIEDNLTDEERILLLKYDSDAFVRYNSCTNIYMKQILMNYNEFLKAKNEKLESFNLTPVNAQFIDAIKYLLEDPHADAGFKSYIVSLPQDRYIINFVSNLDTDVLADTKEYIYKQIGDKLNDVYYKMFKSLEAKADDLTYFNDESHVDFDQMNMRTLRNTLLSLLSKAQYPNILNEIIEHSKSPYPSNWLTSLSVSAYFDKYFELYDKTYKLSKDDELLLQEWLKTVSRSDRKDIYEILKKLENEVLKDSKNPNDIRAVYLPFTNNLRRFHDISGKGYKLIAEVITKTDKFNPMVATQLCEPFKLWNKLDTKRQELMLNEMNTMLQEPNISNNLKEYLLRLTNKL

Beta-lactamase [6] = target: T2, Beta-lactamase (Pseudomonas aeruginosa, UniProt Q79MP6); assay: IMP-1 metallo-beta-lactamase inhibitors, dose response, selectivity assay for VIM-2 inhibitor project, biochemical, epi-absorbance (AID 1920)
T2 sequence (Q79MP6 whole entry): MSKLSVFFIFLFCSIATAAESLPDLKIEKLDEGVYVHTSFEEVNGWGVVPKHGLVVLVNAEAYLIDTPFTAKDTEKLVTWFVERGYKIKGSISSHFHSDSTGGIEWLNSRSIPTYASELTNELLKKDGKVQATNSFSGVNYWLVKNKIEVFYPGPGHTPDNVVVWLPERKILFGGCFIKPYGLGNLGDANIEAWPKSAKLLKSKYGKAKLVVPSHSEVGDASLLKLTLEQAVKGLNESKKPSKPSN

Beta-lactamase [7] = target: T2, Beta-lactamase; assay: […] counterscreen for selective VIM-2 inhibitors: dose response biochemical high throughput screening assay to identify inhibitors of IMP-1 metallo-beta-lactamase.
Cysteine protease ATG4B = target: T3, Cysteine protease ATG4B (Homo sapiens, UniProt Q9Y4P1); format: functional;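 further: Fluorescence-based dose-response confirmation assay measuring inhibition of ATG4B activity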
T3 sequence (Q9Y4P1 whole entry): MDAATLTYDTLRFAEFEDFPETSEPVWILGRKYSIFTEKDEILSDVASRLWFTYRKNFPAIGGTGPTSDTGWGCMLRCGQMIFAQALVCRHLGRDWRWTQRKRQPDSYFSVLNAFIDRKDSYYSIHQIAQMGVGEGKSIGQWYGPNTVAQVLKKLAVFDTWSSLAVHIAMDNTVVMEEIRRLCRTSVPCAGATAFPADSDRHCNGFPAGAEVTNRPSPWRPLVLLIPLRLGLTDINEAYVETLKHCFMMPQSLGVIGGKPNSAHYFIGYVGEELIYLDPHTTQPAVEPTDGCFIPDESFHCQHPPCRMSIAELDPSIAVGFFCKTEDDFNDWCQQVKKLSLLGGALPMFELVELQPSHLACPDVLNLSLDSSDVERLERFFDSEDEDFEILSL

Phospholipase A2 = Phospholipase A2 (Homo sapiens, UniProt P04054); format: functional;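 further: confirmatory dose-response counterscreen on phospholipase A2, testing hits that came from an ultra-high-throughput screen for ATG4B inhibitors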
Sequence of Phospholipase A2 (P04054 whole entry): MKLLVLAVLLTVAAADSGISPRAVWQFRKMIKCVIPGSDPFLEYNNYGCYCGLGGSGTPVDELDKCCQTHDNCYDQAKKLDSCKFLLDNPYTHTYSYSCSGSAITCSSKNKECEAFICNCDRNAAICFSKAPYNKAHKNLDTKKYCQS

cells [8] = format: functional, cell-based
cells [9] = format: functional, cell-based; remark: listed apart in the source
[10] = inhibitors of CMV-promoter luciferase reporter, dose response, counter-screen for Pax8 inhibitor project, cell-based, HEK293, luminescence, dry powder (AID 743020); format: functional
[11] = NIH-3T3 fibroblast cytotoxicity, dose response, cytotoxicity control, cell-based, fluorescence, Alamar Blue, secondary assay (AID 2327); format: functional;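 further: NIH-3T3 mouse fibroblasts cultured with fluconazole at 8 µg/mL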
[12] = tested on: Streptococcus sp. 'group A'; assay: growth inhibition of control SK(-) GAS strain, dose response, counter-screen for streptokinase expression inhibitor project, luminescence, kanamycin, BacTiterGlo, confirmation (AID 1900); format: functional, organism-based
[13] = C. albicans growth with fluconazole, confirmation, fluorescence, retest (AID 2467); format: functional, cell-based
[14] = inhibitors of intracellular T. cruzi replication, confirmation, NIH3T3 host cells, beta-gal luminescence (AID 2044); format: functional, cell-based;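 further: intracellular parasites grown in NIH/3T3 mouse fibroblasts as host cells; luminescent beta-galactosidase reporter signal from transgenic T. cruzi replicating inside host cells; inhibitors lower the luminescence signal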
[15] = target: T4, Serine/threonine-protein phosphatase (Candida dubliniensis (strain CD36 / CBS 7987 / NCPF 3949 / NRRLY-17841) (Yeast), UniProt B9W6M3); assay: calcineurin pathway inhibitors in yeast reporter, dose response, S. cerevisiae, CDRE-lacZ, luminescence, secondary (AID 2388); format: functional, cell-based;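 further: yeast reporter cells carrying a calcineurin-responsive lacZ construct stimulated with calcium chloride; luminescent beta-galactosidase reporter signal in whole cells rather than isolated phosphatase activity; potency for inhibition where a drop in reporter signal means calcineurin blockade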
T4 sequence (B9W6M3 whole entry): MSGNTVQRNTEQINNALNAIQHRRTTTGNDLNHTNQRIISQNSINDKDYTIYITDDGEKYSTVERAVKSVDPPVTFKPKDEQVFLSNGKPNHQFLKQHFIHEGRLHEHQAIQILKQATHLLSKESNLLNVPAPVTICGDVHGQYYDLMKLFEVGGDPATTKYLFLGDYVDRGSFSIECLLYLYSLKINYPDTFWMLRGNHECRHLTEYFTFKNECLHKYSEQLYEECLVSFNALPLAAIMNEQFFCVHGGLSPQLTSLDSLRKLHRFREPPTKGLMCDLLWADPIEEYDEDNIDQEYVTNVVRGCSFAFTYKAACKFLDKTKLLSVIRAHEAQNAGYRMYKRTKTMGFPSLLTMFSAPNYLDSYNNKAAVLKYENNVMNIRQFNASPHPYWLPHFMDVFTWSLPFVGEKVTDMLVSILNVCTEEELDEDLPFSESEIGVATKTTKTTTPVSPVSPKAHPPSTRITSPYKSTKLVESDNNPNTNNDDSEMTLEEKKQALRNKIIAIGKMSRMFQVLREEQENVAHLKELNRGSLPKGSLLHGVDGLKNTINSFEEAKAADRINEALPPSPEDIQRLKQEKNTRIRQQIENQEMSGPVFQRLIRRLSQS

[16] = cytotoxicity toward NIH3T3 fibroblasts, dose response, counter-screen, cell-based, ATP luminescence, mouse fibroblasts (AID 2010); format: functional;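 further: cells exposed to compound for about 90 hours before reading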
Streptococcus = assay: Group A Streptococcus viability loss, dose response, counter-screen for streptokinase expression inhibitor project, luminescence, BacTiterGlo (AID 1915); format: functional, organism-based;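 further: potency for reduction of bacterial viability or growth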
[17] = target: Heat shock protein HSP 90-alpha (Homo sapiens, UniProt P07900); format: functional, organism-based
[18] = target: ATP-dependent molecular chaperone HSP82 (Candida albicans (strain WO-1) (Yeast), UniProt C4YTQ8); assay: loss of DOC-induced GRE-beta-galactosidase reporter signal, dose response, Hsp90 inhibitor project, S. cerevisiae, luminescence (AID 2400); format: functional, cell-based;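 further: beta-galactosidase luminescence from glucocorticoid response element reporter as proxy for Hsp90 function; inhibitor potency where signal loss means Hsp90 inhibition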
Sequence of ATP-dependent molecular chaperone HSP82 (C4YTQ8 whole entry): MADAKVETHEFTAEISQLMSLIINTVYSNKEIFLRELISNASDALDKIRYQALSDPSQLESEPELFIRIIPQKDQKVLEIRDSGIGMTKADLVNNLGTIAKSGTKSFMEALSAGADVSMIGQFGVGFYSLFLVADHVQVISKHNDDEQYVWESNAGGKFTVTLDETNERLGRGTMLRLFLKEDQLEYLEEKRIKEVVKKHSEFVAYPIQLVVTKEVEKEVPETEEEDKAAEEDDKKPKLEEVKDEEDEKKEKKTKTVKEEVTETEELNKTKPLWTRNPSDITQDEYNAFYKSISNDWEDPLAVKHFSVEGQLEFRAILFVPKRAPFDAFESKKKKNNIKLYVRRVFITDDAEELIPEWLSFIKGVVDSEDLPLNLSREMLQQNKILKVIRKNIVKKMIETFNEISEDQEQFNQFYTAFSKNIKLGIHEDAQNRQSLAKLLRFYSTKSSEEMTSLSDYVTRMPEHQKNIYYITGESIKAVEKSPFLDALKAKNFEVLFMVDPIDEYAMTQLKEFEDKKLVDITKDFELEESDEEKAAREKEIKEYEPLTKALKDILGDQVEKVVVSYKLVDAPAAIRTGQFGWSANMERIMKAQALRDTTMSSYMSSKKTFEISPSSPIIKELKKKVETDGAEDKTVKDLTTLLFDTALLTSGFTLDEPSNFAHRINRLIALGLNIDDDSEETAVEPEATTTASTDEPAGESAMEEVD

[19] = human group III sPLA2 inhibitors, dose response, biochemical, QFRET, IC50 (AID 743457);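 further: green fluorescence rise as the enzyme cleaves BODIPY PC-A2 in liposomes; potency for inhibition of the enzyme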
Nonstructural protein 1 = Nonstructural protein 1 (Influenza A virus, UniProt Q194T2); format: functional, Influenza A virus (A/California/07/2009(H1N1))
Sequence of Nonstructural protein 1 (Q194T2 whole entry): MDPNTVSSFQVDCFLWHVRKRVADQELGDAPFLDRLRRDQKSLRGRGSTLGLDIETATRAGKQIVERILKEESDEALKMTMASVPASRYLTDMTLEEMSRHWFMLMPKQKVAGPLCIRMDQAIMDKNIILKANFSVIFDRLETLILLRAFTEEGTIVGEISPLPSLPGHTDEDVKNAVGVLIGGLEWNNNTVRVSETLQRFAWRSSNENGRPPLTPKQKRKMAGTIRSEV

[20] = target: Histone-lysine N-methyltransferase NSD2 (Homo sapiens, UniProt O96028); format: biochemical
Sequence of Histone-lysine N-methyltransferase NSD2 (O96028 whole entry): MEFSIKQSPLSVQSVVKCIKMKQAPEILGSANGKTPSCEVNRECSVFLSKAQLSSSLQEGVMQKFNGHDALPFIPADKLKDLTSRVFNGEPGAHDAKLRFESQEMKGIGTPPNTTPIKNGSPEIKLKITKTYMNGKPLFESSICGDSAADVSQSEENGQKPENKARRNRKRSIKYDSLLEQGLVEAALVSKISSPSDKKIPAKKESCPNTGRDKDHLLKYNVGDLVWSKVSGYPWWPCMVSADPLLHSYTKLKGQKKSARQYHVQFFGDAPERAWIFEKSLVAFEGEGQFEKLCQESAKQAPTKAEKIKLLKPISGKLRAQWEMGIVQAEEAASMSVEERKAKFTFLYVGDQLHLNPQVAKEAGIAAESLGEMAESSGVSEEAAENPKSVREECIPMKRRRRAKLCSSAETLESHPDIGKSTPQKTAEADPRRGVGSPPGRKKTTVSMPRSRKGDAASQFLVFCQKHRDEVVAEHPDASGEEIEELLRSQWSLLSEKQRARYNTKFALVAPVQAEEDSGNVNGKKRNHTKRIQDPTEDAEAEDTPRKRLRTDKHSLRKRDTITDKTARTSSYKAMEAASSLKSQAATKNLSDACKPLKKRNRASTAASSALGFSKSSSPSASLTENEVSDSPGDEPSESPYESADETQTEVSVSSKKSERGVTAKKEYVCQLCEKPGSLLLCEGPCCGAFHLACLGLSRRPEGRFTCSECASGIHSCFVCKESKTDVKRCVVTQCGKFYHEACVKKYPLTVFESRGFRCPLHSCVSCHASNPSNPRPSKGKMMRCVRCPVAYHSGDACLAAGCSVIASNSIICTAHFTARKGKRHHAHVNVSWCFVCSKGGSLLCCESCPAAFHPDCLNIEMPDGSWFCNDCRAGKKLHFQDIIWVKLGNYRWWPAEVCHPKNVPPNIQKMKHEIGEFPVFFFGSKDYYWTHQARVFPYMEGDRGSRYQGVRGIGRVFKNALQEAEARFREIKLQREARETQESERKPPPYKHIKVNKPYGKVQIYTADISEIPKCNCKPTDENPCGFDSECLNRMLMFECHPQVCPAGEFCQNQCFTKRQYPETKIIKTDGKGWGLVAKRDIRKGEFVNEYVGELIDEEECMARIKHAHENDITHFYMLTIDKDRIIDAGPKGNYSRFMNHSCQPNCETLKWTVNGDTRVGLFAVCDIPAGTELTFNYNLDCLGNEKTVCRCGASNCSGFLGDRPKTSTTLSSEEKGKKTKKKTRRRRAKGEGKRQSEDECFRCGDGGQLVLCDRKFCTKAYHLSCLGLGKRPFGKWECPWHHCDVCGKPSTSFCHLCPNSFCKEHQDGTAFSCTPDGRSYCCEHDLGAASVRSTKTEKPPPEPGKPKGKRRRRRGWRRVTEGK

Sequence of Cytochrome P450 3A4 (P08684 whole entry): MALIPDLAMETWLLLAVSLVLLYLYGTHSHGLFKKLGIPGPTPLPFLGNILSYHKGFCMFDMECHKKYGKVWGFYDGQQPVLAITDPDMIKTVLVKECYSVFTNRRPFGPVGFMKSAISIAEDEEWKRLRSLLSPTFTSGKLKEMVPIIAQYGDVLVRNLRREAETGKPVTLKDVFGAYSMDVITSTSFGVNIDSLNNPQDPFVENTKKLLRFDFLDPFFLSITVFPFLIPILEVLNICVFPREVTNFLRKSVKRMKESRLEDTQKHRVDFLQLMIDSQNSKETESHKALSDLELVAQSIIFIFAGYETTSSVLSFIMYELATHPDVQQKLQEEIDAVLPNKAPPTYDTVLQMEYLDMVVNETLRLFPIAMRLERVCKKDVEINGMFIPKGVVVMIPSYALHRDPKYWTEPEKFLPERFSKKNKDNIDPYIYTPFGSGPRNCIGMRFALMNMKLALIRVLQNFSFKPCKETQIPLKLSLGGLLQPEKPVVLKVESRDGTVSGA
Sequence of Cytochrome P450 2C9 (P11712 whole entry): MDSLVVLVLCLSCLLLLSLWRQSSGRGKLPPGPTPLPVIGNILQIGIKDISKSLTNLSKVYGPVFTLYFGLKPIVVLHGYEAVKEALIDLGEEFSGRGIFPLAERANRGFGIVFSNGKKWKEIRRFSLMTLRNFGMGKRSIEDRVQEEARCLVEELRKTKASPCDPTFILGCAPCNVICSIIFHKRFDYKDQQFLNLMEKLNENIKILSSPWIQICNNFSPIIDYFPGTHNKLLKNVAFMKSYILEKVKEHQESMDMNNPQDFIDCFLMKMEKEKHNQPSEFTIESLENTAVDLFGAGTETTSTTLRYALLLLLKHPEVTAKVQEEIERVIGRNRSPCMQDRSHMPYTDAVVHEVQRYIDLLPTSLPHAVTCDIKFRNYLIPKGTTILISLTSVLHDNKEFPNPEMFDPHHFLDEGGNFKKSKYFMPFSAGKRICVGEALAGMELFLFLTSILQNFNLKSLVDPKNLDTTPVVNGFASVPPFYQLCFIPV

## CCCc1cc(=O)oc2cc(OCc3cc(OC)c(OC)c(OC)c3)c(Cl)cc12
[1]
  AC50: > 52 µM (inactive)
Cytochrome P450 3A4
  AC50: 3.55 µM (inconclusive)
Cytochrome P450 2C9
  AC50: 1 µM (inconclusive)

## CNC(=S)N1N=C(c2ccc(Br)cc2)CC1c1ccc(OC)cc1 (stereo unspecified)
[2]
  EC50: 14.5 µM (inactive)
[3]
  EC50: 49.9 µM (not active)
[4]
  EC50: 17.3 µM (not active)
Beta-galactosidase
  IC50: > 80 µM (inactive)

## O=C(CN1CCC(O)(c2cccc(C(F)(F)F)c2)CC1)NCCc1ccccc1
Vero
  AC50: 11.6 µM (active)

## Cc1cc(OCc2cc(C(=O)O)oc2C)c2c3c(c(=O)oc2c1)CCCC3
Beta-lactamase [5]
  IC50: > 59.6 µM (inactive)
Aminopeptidase N
  IC50: 66.4 µM (active)
Beta-lactamase [6]
  IC50: > 59.6 µM (inactive)
Beta-lactamase [7]
  IC50: > 59.6 µM (inactive)
Cysteine protease ATG4B
  IC50: 17.3 µM (active)
Phospholipase A2
  IC50: 13.5 µM (active)

## O=C(Nc1ccccc1)Nc1nncs1
Cells [8]
  IC50: > 29.9 µM (inactive)
Cells [9]
  EC50: > 29.9 µM (inactive)

## CC1CCN(CCOc2ccc(OCc3ccccc3)cc2)CC1
Vero
  AC50: 25.9 µM (active)
[10]
  AC50: < 9.29 µM (active)

## COc1ccc(Cl)cc1C(Nc1cccnc1)c1ccc2cccnc2c1O (stereo unspecified)
[11]
  EC50: 33.6 µM (active)
[12]
  EC50: 3.74 µM (active)
[13]
  EC50: 0.728 µM (active)
[14]
  EC50: 1.86 µM (active)
[15]
  EC50: > 180 µM (inactive)
[16]
  EC50: 6.56 µM (active)
Streptococcus
  EC50: 5.9 µM (active)
[17]
  AC50: 2.2 µM (active)
[18]
  EC50: 16.3 µM (active)
[19]
  IC50: > 122 µM (inactive)

## Cc1ccc(N2CCOCC2)c2c1C(=O)c1ccccc1C2=O
Nonstructural protein 1
  IC50: 14.5 µM (active)
[20]
  AC50: 10.5 µM (active)
[19]
  IC50: > 122 µM (inactive)

Reference: ChEMBL document CHEMBL1201862, “PubChem BioAssay data set” (2004)
